Values joined by “and” are separate entries in the source; they are usually repeats but may differ in a detail not shown here. Equal values may be shown once.
Tests used:
GmACBP4.1_33–354 (WT) = target: T1, GmACBP4.1_33–354 (WT) (Glycine max, UniProt I1KAV2); conditions: SEM, n = 3
T1 construct: gene LOC100816670
T1 sequence (I1KAV2 33-354): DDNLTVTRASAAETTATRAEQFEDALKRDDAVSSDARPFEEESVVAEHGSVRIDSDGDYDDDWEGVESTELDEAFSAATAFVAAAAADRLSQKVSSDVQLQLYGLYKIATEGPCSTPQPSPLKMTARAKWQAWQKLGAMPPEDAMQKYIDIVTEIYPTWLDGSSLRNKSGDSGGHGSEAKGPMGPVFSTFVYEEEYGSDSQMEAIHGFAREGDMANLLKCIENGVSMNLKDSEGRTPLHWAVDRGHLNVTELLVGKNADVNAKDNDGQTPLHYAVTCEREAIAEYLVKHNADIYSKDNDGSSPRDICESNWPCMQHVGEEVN
Description: The liposome-associated protein fraction was quantified densitometrically. […] D, Protein–lipid bead binding assays with competing acyl-CoAs. […] Bound and unbound WT (left panel) and Y135A (middle panel) were detected by immunoblotting using anti-GsACBP3 antibodies. Input lanes represent 50% protein. Arrowheads indicate target bands. The PA-bound protein fraction was quantified densitometrically. The half maximal inhibitory concentration (IC50) of the WT is the mean ± SEM from three independent experiments.
To validate this assumption, the binding of the WT and Y135A mutant to PA beads was investigated in the presence of C18:2-CoA (Figure 5, D).
After three washes in the same buffer, bound proteins were eluted with 6× Laemmli sample buffer. Protein binding on filter strips, liposomes, and PA beads was detected by immunoblotting using anti-ACBP3.1 antibodies.

[1] = tested on: GmACBP4.1_33–354 interaction with GmPLDα1:StrepII; assay: Strep-Tactin pull-down assay with supplemented acyl-CoAs; assay type: binding, soybean; conditions: acyl-CoA 12.5–100 μM, versus control without acyl-CoA
Description: Figure 6 Specific acyl-CoA species facilitate GmACBP4 interaction with VLXB and GmPLDα1. A, Strep-Tactin pull-down assays. […] (His)6-GmACBP4.1_33–354 were detected in eluates by immunoblotting using anti-ACBP3 antibodies. […] Input lanes represent 1% protein. Arrowheads indicate target bands of 40-kD (His)6-GmACBP4.1_33–354 (apparent: 50 kD). The bound protein fraction was quantified densitometrically. […] B–C, Strep-Tactin pull-down assays with supplemented acyl-CoAs. […] Input lanes represent 5% proteins in (B) or 10% proteins in (C). Arrowheads indicate target bands of 40-kD (His)6-GmACBP4.1_33–354 (apparent: 50kD).
Strep-Tactin pull-down assays were performed using Strep-Tactin XT resins (IBA) following the manufacturer’s instructions. Briefly, 5 μL of resins with/without prebound VLXB:StrepII or GmPLDα1:StrepII (0.5 μM) were agitated with GmACBP4.1_33–354 (0.5 μM) and acyl-CoAs (0, 12.5, 25, 50, and 100 μM) in Buffer W containing 0.1 M Tris–HCl (pH 7), 0.15 M NaCl, 1 mM EDTA and 0.05% (w/v) Triton X-100 at 4°C for 2 h. After three washes in Buffer W, bound proteins were eluted in Buffer W with 50 mM biotin, and analyzed by immunoblotting using anti-ACBP3.1 antibodies.

[2] = tested on: GmACBP4.1_33–354 interaction with VLXB:StrepII; assay: as above; assay type: binding, soybean; conditions: acyl-CoA 12.5–100 μM, versus control without acyl-CoA
[3] = target: (His)6-GmACBP4.1_33–354 (WT or Y135A mutant); assay: Protein–lipid bead binding assay with competing acyl-CoA (PA beads); set-up: species or system soybean
AtACBP1 = target: AtACBP1; set-up: method as in Xue et al., 2014; conditions: ref Xue et al., 2014; cited from earlier work
(His)6-GmACBP4.1_33–354 [4] = assay: Isothermal titration calorimetry of acyl-CoA binding (WT protein); set-up: species or system soybean; conditions: ITC at 25°C; 15 μM protein titrated with 200 μM acyl-CoA; mean ± SD, three experiments; read-out: KD, dissociation constant
Method: ITC was conducted with a MicroCal iTC200 system (GE Healthcare) at 25°C in 10 mM sodium phosphate (pH 7) by 20 injections of 1.8-μL acyl-CoAs (200 μM; Avanti Polar Lipids Inc., Alabaster, AL, USA) into the sample cell with 15 μM purified (His)6-GmACBP4.1. Each injection lasted 4 s at 150-s intervals with a stirring speed of 1,000 rpm. Nonspecific heat effects were estimated and corrected after saturation. The baseline was adjusted, and the data were fitted into a single-site binding model using the Origin version 7.0 software (OriginLab).
Supplemental Table 1. Binding constants and thermodynamic parameters for (His)6-GmACBP4.133–354 interaction with acyl-CoAs. (Supports Figure 5A) […]
Isothermal titration calorimetry analysis was performed by titration of 250 μL of 15 μM (His)6-GmACBP4.133–354 with […]
from three independent experiments. n, stoichiometry (number of ligand sites per protein); KD, dissociation constant; ∆H, enthalpy change; −T∆S, entropy change; ∆G, Gibbs free energy.

(His)6-GmACBP3.1_33–346 = assay: Protein–lipid overlay assay; assay type: binding, soybean; conditions: commercial strips with 15 neutral and polar lipids; 0.5 μg mL−1 protein
(His)6-GmACBP4.1_33–354 [5] = assay: Protein–lipid overlay assay; assay type: binding, soybean; conditions: commercial strips and PA-spotted nitrocellulose strips; 0.5 μg mL−1 protein
(His)6-GmACBP4.1_33–354 [6] = assay: Liposome association assay for PA binding; set-up: species or system soybean; conditions: PA:di-16:0-PC liposomes, 0–100% (w/w) PA
[7] = tested on: AtACBP2 interaction with LYSOPL2; set-up: method as in Miao et al., 2019; conditions: ref Miao et al., 2019; cited from earlier work

Compound: CCCCC/C=C\C/C=C\CCCCCCCC(=O)SCCNC(=O)CCNC(=O)[C@H](O)C(C)(C)COP(=O)(O)OP(=O)(O)OC[C@H]1O[C@@H](n2cnc3c(N)ncnc32)[C@H](O)[C@@H]1OP(=O)(O)O [C18:2-CoA, linoleoyl-CoA]
- IC50 (GmACBP4.1_33–354 (WT)): 22.9 µM
- increase in WT binding with GmPLDα1:StrepII [1]: did not influence
- increase in WT binding with VLXB:StrepII [2]: up to four-fold
- IC50 ([3]; WT protein 2.5 μg mL−1, 1 μM PA beads, competing C18:2-CoA, mean ± SEM, three experiments, read-out: half maximal inhibitory concentration (IC50) for PA-bound WT fraction): 22.9 µM
- effect on Y135A binding to PA beads ([3]; Y135A mutant, compared with WT): less affected
- Kd (AtACBP1): 0.4 to 0.8 µM
- Kd ((His)6-GmACBP4.1_33–354 [4]): 0.92 µM and 0.9 to 1.2 µM

Compound: CCCCCCCCCCCCCCCC(=O)OCC(COP(=O)(O)O)OC(=O)CCCCCCCCCCCCCCC (stereo not drawn) [di-16:0-PA]
- binding on lipid filter strips ((His)6-GmACBP3.1_33–346): sole ligand
- binding on lipid filter strips ((His)6-GmACBP4.1_33–354 [5]): sole ligand
- descending order of affinity to the WT (liposome association) ((His)6-GmACBP4.1_33–354 [6]): di-16:0-PA ≈ di-18:1-PA > di-18:0-PA > di-14:0-PA
- descending order of affinity to the WT (liposome association) ((His)6-GmACBP4.1_33–354 [6]; listed as 32:0-PA): relatively higher affinity

Compound: lysophosphatidylcholine
- fold higher affinity of AtACBP2 for LYSOPL2 interaction when complexed with the ligand [7]: 10 fold

From PMC8894927, “Oxylipin signaling in salt-stressed soybean is modulated by ligand-dependent interaction of Class II acyl-CoA-binding proteins with lipoxygenase” (The Plant Cell, 2021)
